Blank lines part the entries; values can stand above or below the compound they belong to.
Legend:
[1] = molecular target: T1, es nucleoside transporter (Mus musculus, UniProt Q9JIM1); assay: [3H]NBMPR equilibrium binding to L1210/B23.1 cells and its inhibition by SAENTA-fluorescein probes; settings: 22°; for Ki: replots of Kd(app)/Bmax versus [probe], read-out: Ki (mean ± S.D.)
T1 construct: endogenous in cells; host or cells: L1210/B23.1 mouse leukemia cells
T1 sequence (Q9JIM1 1-460): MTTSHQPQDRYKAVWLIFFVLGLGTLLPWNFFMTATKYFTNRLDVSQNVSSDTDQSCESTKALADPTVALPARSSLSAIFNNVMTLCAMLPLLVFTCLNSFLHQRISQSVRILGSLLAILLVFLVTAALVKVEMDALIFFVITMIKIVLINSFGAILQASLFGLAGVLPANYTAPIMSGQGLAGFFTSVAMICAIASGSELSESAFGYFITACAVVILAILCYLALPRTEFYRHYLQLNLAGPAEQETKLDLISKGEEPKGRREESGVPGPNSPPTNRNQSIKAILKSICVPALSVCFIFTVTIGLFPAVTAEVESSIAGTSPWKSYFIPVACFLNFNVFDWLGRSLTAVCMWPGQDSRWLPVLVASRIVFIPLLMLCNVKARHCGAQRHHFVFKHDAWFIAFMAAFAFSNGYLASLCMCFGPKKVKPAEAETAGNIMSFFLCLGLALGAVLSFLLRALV

[2] = molecular target: T2, es nucleoside transporter (Sus scrofa, UniProt A0A287B2T6); assay: Inhibition of site-specific [3H]NBMPR binding to unsealed pig erythrocyte ghosts; settings: for IC50: 2 nM [3H]NBMPR, 20 min, 22° C., pH 7.4, read-out: IC50 for inhibition of site-bound [3H]NBMPR; for inhibition of NBMPR binding to the nucleoside transporter: result in words
T2 construct: immediately processed by conventional methods for recovery of erythrocytes; tissue Gainers, Edmonton, Alberta, Canada (blood of domestic pigs); host or cells: pig erythrocytes, unsealed ghosts
Protocol: Blood from adult domestic pigs (Gainers, Edmonton, Alberta, Canada) was collected into 0.2 vol. of anticoagulant solution (90 mM-sodium citrate/16 mM-citric acid/16 mM-monosodium phosphate/2 mM-adenine/12 mM-inosine) and immediately processed by conventional methods for recovery of erythrocytes.
Unsealed ghosts were prepared at 4° C. by the procedure of Steck & Kant, (1974), Methods in Enzymology, vol. 31, pp. 172-180, modified by the inclusion of 0.1 mM phenylmethane sulphonyl fluoride, and stored at -70° C.
NBMPR was prepared as described by Paul, Chen & Paterson (1975), J. Med Chem., vol. 18, pp. 968-973. [G-^3 H]NBMPR (23 Ci/mmol), obtained from Moravek Biochemicals, Brea, CA., U.S.A., was purified by using a Spheri-10 RP18 100 mm×4.6 mm column (Brownlee Labs, Santa Clara, CA,. U.S.A.), eluted with a methanol/water gradient.
Binding to unsealed ghosts was determined by a filtration assay, as described by Agbanyo, Cass & Paterson (1988) Mol. Pharmacol., vol. 33, pp. 332-337. Assay mixtures (final volume, 1.2 ml; two samples per condition) contained 2 nM-[^3 H]NBMPR, graded concentrations of test compound and unsealed ghosts (10 μg of protein/ml) in 5 mM-sodium phosphate buffer, pH 7.4, at 22° C., and, for determination of non-specific binding, 5 μM non-radioactive NBMPR was present. After a 20 min incubation at 22° C., membrane material from 1 ml portions of assay mixtures was collected by vacuum filtration on Whatman GF/C microfibre filters, which were then rapidly washed three times with 2 ml portions of ice-cold 5 mM-sodium phosphate buffer. The filters were placed in scintillation vials and assayed for radioactivity after a 16 h incubation in 8 ml of Triton X-100-based scintillation fluid as described by Pande (1976) Anal. Biochem., vol. 74, pp. 25-34. Protein was determined by the bicinchoninic acid method of Smith et al. (1985) Anal. Biochem., vol. 150, pp. 76-85.
Correction for non-specific binding was determined by performing the assay in the presence of 5 μM-non radioactive NBMPR. Replicate mixtures contained ghosts, 2 nM-[^3 H]NBMPR, graded concentrations of SAENTA or acetyl SAENTA (prepared as in Example 1) and, in mixtures used for non-specific binding, 5 μM-non radioactive NBMPR. Values for [^3 H]NBMPR specifically bound in the presence of inhibitor are expressed as percentages of that bound in its absence.
IC50 values were determined from plots of % site-bound NBMPR in presence of test compound against concentration of test compound.

[3] = molecular target: T1, es nucleoside transporter; assay: Flow cytometric staining of L1210/B23.1 cells (es nucleoside transporter-expressing) by SAENTA-fluorescein probe; assay type: cell-based; settings: 40 nM 5-(SAENTA-X2)-fluorescein, 10 min, 4° C., pH 8.0, FIG. 8
Protocol: Flow cytometric measurements of binding of .[.SAENTA-x2 -fluorescein.]. .Iadd.SAENTA-X2-fluorescein .Iaddend.prepared as in Example 3 was carried out as in Example 4 using two clonal lines of cultured mouse leukemia L 1210 cells, L 1210/B23.1 and L 1210/MA-27.1. L 1210/B23.1 expresses NBMPR binding sites and nuclesoside transporter activity whereas L 1210/MA-27.1 cells lack both of these features.
Staining conditions were chosen to minimise non-specific fluorescence signals from L 1210/MA-27.1 cells treated with the nucleoside.
Cells were exposed for 10 min at 4° C. to phosphate-buffered (pH 8.0) salts medium containing 40 nM .[.5(SAENTA-xx2)fluorescein.]. .Iadd.5-(SAENTA-X2)-fluorescein .Iaddend.prior to flow cytometric analysis in a BD FACSan instrument; 10^5 cells were analysed. Cells in replicate assay mixtures were also exposed for 5 min at 22° C. to medium containing 10 μM NBMPR and then for 10 min at 4° C. to medium containing both NBMPR and .[.5-SAENTA-x2)-fluorescein.]. .Iadd.5-(SAENTA-X2)-fluorescein.Iaddend..
(a) Clonal lines of mouse leukemia cells were exposed for 10 min at 4° C. to phosphate buffered (pH 8.0) saline containing […] .[.5-(SAENTA-x2)-fluorescein.]. .Iadd.5-(SAENTA-X2)-fluorescein .Iaddend.(prepared as in Example 3) prior to flow cytometric analysis in a BD FACScan instrument; 10^4 cells were analysed. Cells in replicate mixtures were also exposed for 5 min at 22° C. to medium containing 10 μM NBMPR and then for 10 min at 4° C. to medium containing both NBMPR and .[.5-(SAENTA-x2)-fluorescein.]. .Iadd.5-(SAENTA-X2)-fluorescein.Iaddend.. L 1210/B23.1 cells express the es nucleoside transport system whereas L 1210/MA-27.1 cells lack that activity.

nucleoside transporter [4] = molecular target: T3, nucleoside transporter (Homo sapiens, UniProt Q99808); assay: Inhibition of [3H]NBMPR binding to RC2a leukaemic cells; settings: 30 min, 37° C., FIG. 5; read-out: half-maximal inhibition of site-specific [3H]NBMPR binding
T3 construct: The human leukaemic cell line RC2a, of myelomonocytic origin; endogenous in cells; host or cells: RC2a human leukaemic (myelomonocytic) cells
T3 sequence (Q99808 1-456): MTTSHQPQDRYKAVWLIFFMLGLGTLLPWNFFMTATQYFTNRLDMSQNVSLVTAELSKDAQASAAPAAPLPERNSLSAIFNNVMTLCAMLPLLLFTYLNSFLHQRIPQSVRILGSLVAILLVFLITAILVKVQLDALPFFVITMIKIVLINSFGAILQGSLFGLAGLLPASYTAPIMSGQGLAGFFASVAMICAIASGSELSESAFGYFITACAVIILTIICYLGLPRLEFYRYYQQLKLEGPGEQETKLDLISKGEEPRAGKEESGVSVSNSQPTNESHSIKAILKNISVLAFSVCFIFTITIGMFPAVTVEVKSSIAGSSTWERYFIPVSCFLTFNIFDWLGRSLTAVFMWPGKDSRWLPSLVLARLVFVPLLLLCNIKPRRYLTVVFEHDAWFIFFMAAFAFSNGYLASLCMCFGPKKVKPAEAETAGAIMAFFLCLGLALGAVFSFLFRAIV
Protocol: [^3 H]NBMPR from Moravek Biochemicals Brea, CA, U.S.A. was purified by reverse phase HPLC using methanol-water as solvent. Unlabelled NBMPR was supplied by Sigma (St. Louis, MO, U.S.A.). [^3 H]Cytosine arabinoside (araC) and [^14 C]polyethylene glycol were obtained from Amersham, Buckinghamshire, England. Dilazep was a gift from Roche, Dee Why, Australia.
The free [^3 H]NBMPR concentration in the medium above the oil was also measured. Non-specific binding of [^3 H]NBMPR was measured in parallel incubations of cells treated for 5 min at 37° C. with 5 μM NBMPR before the addition of [^3 H]NBMPR. Specific binding was calculated by subtracting the amount of non-specific binding (determined in the presence of 5 μM unlabelled NBMPR) from total [^3 ]NBMPR binding in all analyses.

nucleoside transporter [5] = molecular target: T3, nucleoside transporter; assay: Equilibrium binding of SAENTA-fluorescein probe to RC2a cells by flow cytometry, with displacement by NBMPR or dilazep
nucleoside transporter [6] = molecular target: T3, nucleoside transporter; assay: Inhibition of [3H]cytosine arabinoside (araC) influx in RC2a leukaemic cells; assay type: cell-based
Protocol: . Unlabelled NBMPR was supplied by Sigma (St. Louis, MO, U.S.A.). [^3 H]Cytosine arabinoside (araC) and [^14 C]polyethylene glycol were obtained from Amersham, Buckinghamshire, England. Dilazep was a gift from Roche, Dee Why, Australia. Incubations were carried out using imidazole-buffered saline (IBS; […], 5 mM KCl, 5 mM imidazole-Cl, 1 mM MgCl2 and 5 mM glucose, pH 7.4).
The human leukaemic cell line RC2a, of myelomonocytic origin (Bradley et al., 1982 Brit. J. Haematol., vol. 51, pp. 595-604) was maintained in RPMI 1640 medium containing 10% foetal calf serum, 2 mM glutamine, 20 mM HEPES (pH 7.4) (Flow Laboratories, Sydney, Australia) and 20 mg/l gentamycin sulphate (Roussell, Castle Hill, Australia). Cell densities were maintained below 5×10^5 /ml. Cells were collected by centrifugation and resuspended in buffered saline for assays.
Prior to measurement of [^3 H]araC uptake, RC2a leukaemic cells were treated at 20° C. for 10 min with graded concentrations (0-0.05 μM) of .[.SAENTA-x2 -fluorescein.]. .Iadd.SAENTA-X2-fluorescein .Iaddend.prepared as in Example 3. Treated cells (100 μl, 5×10^7 cells/ml) were added to [^3 H]araC (100 μl) in IBS medium in 1.5 ml centrifuge tubes to give a final araC concentration of 50 μM. [^3 H]araC uptake was ended 20 sec. later by the addition of 800 μl of ice-cold dilazep (750 μM) (Jamieson et al., 1989). Phthalate oil was added immediately and the tube spun at 8000 g for 2 min. Medium above the oil was aspirated, the tube walls washed, and the oil above the cell pellet removed. Pellets were solubilized using 0.5M NaOH and the [^3 H]araC contents were measured by liquid scintillation counting. […]
The ability of .[.SAENTA-x2 -fluorescein.]. .Iadd.SAENTA-X2-fluorescein .Iaddend.to inhibit influx of nucleoside was assessed in cultured RC2a leukaemic cells by treating the cells for 10 min with graded concentrations of .[.SAENTA-x2 -fluorescein.]. .Iadd.SAENTA-X2-fluorescein .Iaddend.(0 to 0.25 μM). Uptake rates of araC (50 μM) were then determined over 20 s at 20° C. as described above.

T2 sequence (A0A287B2T6 1-457): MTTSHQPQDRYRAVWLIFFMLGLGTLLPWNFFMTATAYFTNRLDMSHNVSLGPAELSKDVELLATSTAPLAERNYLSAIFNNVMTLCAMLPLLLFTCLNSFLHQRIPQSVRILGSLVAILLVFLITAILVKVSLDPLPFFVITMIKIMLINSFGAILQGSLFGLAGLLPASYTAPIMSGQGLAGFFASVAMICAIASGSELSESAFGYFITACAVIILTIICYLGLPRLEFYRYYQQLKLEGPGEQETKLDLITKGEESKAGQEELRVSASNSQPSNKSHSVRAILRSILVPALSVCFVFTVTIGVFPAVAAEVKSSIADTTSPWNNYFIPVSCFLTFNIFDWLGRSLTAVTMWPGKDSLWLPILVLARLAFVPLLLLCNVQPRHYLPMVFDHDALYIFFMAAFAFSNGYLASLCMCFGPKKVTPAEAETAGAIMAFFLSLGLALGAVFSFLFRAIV

Structure (SMILES): O=C1OC2(c3ccc(O)cc3Oc3cc(O)ccc32)c2cc(NC(=S)NCCSC[C@H]3O[C@@H](n4cnc5c(NCc6ccc([N+](=O)[O-])cc6)ncnc54)[C@H](O)[C@@H]3O)ccc21 [6-(SAENTA-X2)-fluorescein]
- Ki [1]: 9.9 ± 2.8 nM

Structure (SMILES): O=[N+]([O-])c1ccc(CSc2ncnc3c2ncn3C2OC(CO)C(O)C2O)cc1 (centres unmarked) [NBMPR, nitrobenzyl thioinosine, reference compound]
- Kd ([1]; Scatchard analysis (LIGAND)): 0.085 ± 0.015 nM

Structure (SMILES): NCCSC[C@H]1O[C@@H](n2cnc3c(NCc4ccc([N+](=O)[O-])cc4)ncnc32)[C@H](O)[C@@H]1O [SAENTA, 5'-S-(2-aminoethyl)-6-N-(4-nitrobenzyl)-5'-thioadenosine]
- IC50 [2]: 330 nM
- inhibition of NBMPR binding to the nucleoside transporter [2]: strong inhibition

Structure (SMILES): CC(=O)NCCSC[C@H]1O[C@@H](n2cnc3c(NCc4ccc([N+](=O)[O-])cc4)ncnc32)[C@H](O)[C@@H]1O [acetyl SAENTA]
- IC50 [2]: 76 nM
- inhibition of NBMPR binding to the nucleoside transporter [2]: strong inhibition

Second part, led by results:

- Ki [1]: 0.8 ± 0.21 nM
Structure (SMILES): O=C(CCCCCNC(=O)c1ccc2c(c1)C(=O)OC21c2ccc(O)cc2Oc2cc(O)ccc21)NCCSC[C@H]1O[C@@H](n2cnc3c(NCc4ccc([N+](=O)[O-])cc4)ncnc32)[C@H](O)[C@@H]1O [5-(SAENTA-X8)-fluorescein, 5'-S-[2-(6-(Fluorescein-5-carboxamido)hexanoylamino)ethyl]-N^6-(4-nitrobenzyl)-5'-thioadenosine]

- Ki [1]: 1.7 ± 0.5 nM
Structure (SMILES): O=C(CCCCCNC(=O)c1ccc2c(c1)C1(OC2=O)c2ccc(O)cc2Oc2cc(O)ccc21)NCCSC[C@H]1O[C@@H](n2cnc3c(NCc4ccc([N+](=O)[O-])cc4)ncnc32)[C@H](O)[C@@H]1O [6-(SAENTA-X8)-fluorescein, 5'-S-[2-(6-(Fluorescein-6-carboxamido)hexanoylamino)ethyl]-N^6-(4-nitrobenzyl)-5'-thioadenosine]

- distinction of L1210/B23.1 from L1210/MA-27.1 cells by cell staining [3]: able to distinguish clearly
- IC50 (nucleoside transporter [4]): 50 to 100 nM
- EC50 (nucleoside transporter [5]; RC2a cells 1×10^5/ml, room temperature, n=3, ±1 SD, FIG. 7, read-out: concentration giving half-maximal binding (NBMPR-sensitive)): 6.2 ± 1 nM
- time to equilibrium of cell bound fluorescence (nucleoside transporter [5]; all ligand concentrations, room temperature): 10 min
- time to equilibrium between bound and free probe (nucleoside transporter [5]; lowest ligand concentration, room temperature): 10 min
- IC50 (nucleoside transporter [6]; 50 μM araC, 20° C., 10 min pretreatment): ~40 nM
- inhibition of influx of [3H]araC (nucleoside transporter [6]; 50 μM araC, 20° C., 10 min exposure to 0.25 μM probe): 90%
Structure (SMILES): O=C(O)c1cc(NC(=S)NCCSC[C@H]2O[C@@H](n3cnc4c(NCc5ccc([N+](=O)[O-])cc5)ncnc43)[C@H](O)[C@@H]2O)ccc1-c1c2ccc(=O)cc-2oc2cc(O)ccc12 [SAENTA-X2-fluorescein]

- displacement of SAENTA-X2-fluorescein binding (nucleoside transporter [5]; 2 μM dilazep versus 1 μM NBMPR): as effective as NBMPR
Structure (SMILES): COc1cc(C(=O)OCCCN2CCCN(CCCOC(=O)c3cc(OC)c(OC)c(OC)c3)CC2)cc(OC)c1OC [dilazep, reference compound]
- effectiveness in stopping araC influx (nucleoside transporter [6]; dilazep added to cells prior to [3H]araC): effectiveness of dilazep in stopping influx was confirmed

From patent USRE35904E, “Method and probes for detecting nucleoside transporter and method for producing the probes” (Governors of the University of Alberta, priority 1995, dated 1998)
